Assay results from US9955691B2, “Macrocyclic picolinamides as fungicides” (DOW AGROSCIENCES LLC, priority 2014, dated 2018).
Read-outs that look alike come from different tables or passages of the source.

Tests used:
[1] = system: Mycosphaerella graminicola; Anamorph: Septoria tritici; experiment: Fungicidal activity: Leaf Blotch of Wheat (SEPTTR); type: in vivo; conditions: Zymoseptoria tritici, wheat leaf blotch; for pest or weed control at 100 µg/mL: High Volume (100 ppm); for pest or weed control at 121.5 g/ha: Low Volume (121.5 g/H)
Outline: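 Compounds were dissolved in acetone, diluted with nine volumes of water containing 110 ppm Triton X-100, and sprayed to run-off on first-leaf Yuma wheat seedlings inoculated with Septoria tritici spores before or after treatment. Plants were held in a dew chamber, then a 20° C. greenhouse. Percent control was derived from disease severity relative to untreated plants.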

Puccinia triticina = experiment: Fungicidal activity: Wheat Brown Rust (PUCCRT); type: in vivo; conditions: for pest or weed control at 100 µg/mL: High Volume (100 ppm); for pest or weed control at 121.5 g/ha: Low Volume (121.5 g/H)
Outline: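 Wheat seedlings (Yuma, first leaf) sprayed to run-off with compound in acetone/water with Triton X-100, inoculated with Puccinia triticina before or after treatment. Held overnight in dark dew at 22° C, then greenhouse at 24° C; percent disease control from severity versus untreated plants.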

[2] = 24 h, 1 Day Protectant, read-out: SEPTTR 1 DP disease control
[3] = 72 h, 3 Day Curative, read-out: SEPTTR 3 DC disease control
[4] = 24 h, 1 Day Protectant, read-out: PUCCRT 1 DP disease control
[5] = 72 h, 3 Day Curative, read-out: PUCCRT 3 DC disease control

| Compound | melting point [°C] | pest or weed control at 100 µg/mL [1, 2] [%] | pest or weed control at 100 µg/mL [1, 3] [%] | pest or weed control at 100 µg/mL (Puccinia triticina; [4]) [%] | pest or weed control at 100 µg/mL (Puccinia triticina; [5]) [%] | pest or weed control at 121.5 g/ha [1, 2] [%] | pest or weed control at 121.5 g/ha [1, 3] [%] | pest or weed control at 121.5 g/ha (Puccinia triticina; [4]) [%] | pest or weed control at 121.5 g/ha (Puccinia triticina; [5]) [%] |
| --- | --- | --- | --- | --- | --- | --- | --- | --- | --- |
| COc1ccnc(C(=O)N[C@H]2COC[C@H](CC3CCCCC3)[C@@H](CC3CCCCC3)[C@H](C)OC2=O)c1OCOC(C)=O [compound 10] | 50 to 56 | > 70 | < 70 | > 70 | > 70 |  |  |  |  |
| COc1ccnc(C(=O)N[C@@H]2COC[C@@H](Cc3ccccc3)[C@H](COCC(C)C)[C@@H](C)OC2=O)c1OCOC(C)=O [compound 13] | 44 to 48 | > 70 | > 70 | > 70 | > 70 | > 70 | > 70 | > 70 | > 70 |
| COc1cccc(C[C@H]2COC[C@H](NC(=O)c3nccc(OC)c3OCOC(C)=O)C(=O)O[C@@H](C)[C@@H]2Cc2cccc(OC)c2)c1 [compound 17] | 51 to 55 |  |  |  |  | > 70 | > 70 | > 70 | < 70 |
| COc1ccnc(C(=O)N[C@H]2COC[C@H](Cc3ccccc3)[C@@H](c3ccccc3)[C@H](C)OC2=O)c1OC(C)=O [compound 54] | 99 to 103 |  |  |  |  | > 70 | > 70 | > 70 | > 70 |
| COc1ccnc(C(=O)N[C@H]2COC[C@H](Cc3ccc(Cl)cc3)[C@@H](Cc3ccc(OC(F)(F)F)cc3)[C@H](C)OC2=O)c1OCOC(C)=O [compound 58] | 158 to 161 |  |  |  |  | > 70 | > 70 | > 70 | < 70 |
| COc1ccnc(C(=O)N[C@H]2COC[C@H](Cc3ccc(Cl)cc3)[C@@H](Cc3ccc(OC(F)(F)F)cc3)[C@H](C)OC2=O)c1OC(C)=O [compound 59] | 80 to 85 |  |  |  |  | < 70 | < 70 | < 70 | < 70 |
| COc1ccnc(C(=O)N[C@H]2COC[C@H](Cc3ccc(C(F)(F)F)cc3)[C@@H](Cc3ccc(OC(F)(F)F)cc3)[C@H](C)OC2=O)c1OCOC(C)=O [compound 66] | 57 to 60 |  |  |  |  | > 70 | > 70 | > 70 | > 70 |
| COc1ccnc(C(=O)N[C@H]2COC[C@H](CCCc3ccccc3)[C@@H](CCc3ccccc3)[C@H](C)OC2=O)c1OCOC(C)=O [compound 67] | 37 to 40 |  |  |  |  | < 70 | < 70 | < 70 | < 70 |
| COc1ccnc(C(=O)N[C@H]2COC[C@H](CC3CC3)[C@@H](Cc3ccccc3)[C@H](C)OC2=O)c1OCOC(C)=O [compound 68] | 41 to 45 |  |  |  |  | > 70 | < 70 | > 70 | < 70 |
| COc1ccnc(C(=O)N[C@H]2COC[C@H](CC3CC3)[C@@H](Cc3ccccc3)[C@H](C)OC2=O)c1OC(C)=O [compound 69] | 125 to 128 |  |  |  |  | > 70 | > 70 | > 70 | > 70 |
| COc1ccnc(C(=O)N[C@H]2COC[C@H](CC3CC3)[C@@H](Cc3ccccc3)[C@H](C)OC2=O)c1OCOC(=O)C(C)C [compound 70] | 37 to 41 |  |  |  |  | > 70 | > 70 | > 70 | > 70 |
| COc1ccnc(C(=O)N[C@H]2COC[C@H](Cc3ccc(C(F)(F)F)cc3)[C@@H](CC(C)C)[C@H](C)OC2=O)c1OCOC(C)=O [compound 71] | 54 to 59 |  |  |  |  | > 70 | > 70 | > 70 | > 70 |
| COc1ccnc(C(=O)N[C@H]2COC[C@H](Cc3ccc(C(F)(F)F)cc3)[C@@H](CC(C)C)[C@H](C)OC2=O)c1OC(C)=O [compound 72] | 75 to 79 |  |  |  |  | > 70 | > 70 | > 70 | > 70 |
| COc1ccnc(C(=O)N[C@H]2COC[C@H](Cc3ccc(Cl)cc3)[C@@H](C3CCCC3)[C@H](C)OC2=O)c1OC(C)=O [compound 86] | 85 to 89 |  |  |  |  | > 70 | > 70 | > 70 | > 70 |
| COc1ccnc(C(=O)N[C@H]2COC[C@H](Cc3ccc(Cl)cc3)[C@@H](C3CCCC3)[C@H](C)OC2=O)c1OC(=O)C(C)C [compound 87] | 73 to 77 |  |  |  |  | > 70 | > 70 | > 70 | < 70 |
| COc1ccnc(C(=O)N[C@H]2COC[C@H](Cc3ccc(Cl)cc3)[C@@H](C3CCCC3)[C@H](C)OC2=O)c1OCOC(C)=O [compound 88] | 56 to 60 |  |  |  |  | > 70 | < 70 | > 70 | < 70 |
| COc1ccnc(C(=O)N[C@H]2COC[C@H](Cc3ccc(Cl)cc3)[C@@H](C3CCCC3)[C@H](C)OC2=O)c1OCOC(=O)C(C)C [compound 89] | 54 to 58 |  |  |  |  | > 70 | > 70 | > 70 | < 70 |
| CCOCC(=O)OCOc1c(OC)ccnc1C(=O)N[C@H]1COC[C@H](Cc2ccc(Cl)cc2)[C@@H](C2CCCC2)[C@H](C)OC1=O [compound 90, ((2-(((3S,7R,8R,9S)-7-(4-chlorobenzyl)-8-cyclopentyl-9-methyl-2-oxo-1,5-dioxonan-3-yl)carbamoyl)-4-methoxypyridin-3-yl)oxy)methyl 2-ethoxyacetate] | 52 to 55 |  |  |  |  | > 70 | > 70 | > 70 | < 70 |
| COc1ccnc(C(=O)N[C@H]2COC[C@H](CCC(C)C)[C@@H](C3CCCC3)[C@H](C)OC2=O)c1OC(C)=O [compound 91] | 57 to 62 |  |  |  |  | > 70 | > 70 | > 70 | < 70 |
| COc1ccnc(C(=O)N[C@H]2COC[C@H](CCC(C)C)[C@@H](C3CCCC3)[C@H](C)OC2=O)c1OC(=O)C(C)C [compound 92, 2-(((3S,7R,8R,9S)-8-cyclopentyl-7-isopentyl-9-methyl-2-oxo-1,5-dioxonan-3-yl)carbamoyl)-4-methoxypyridin-3-yl isobutyrate] | 47 to 51 |  |  |  |  | > 70 | > 70 | > 70 | > 70 |
| COc1ccnc(C(=O)N[C@H]2COC[C@H](CCC(C)C)[C@@H](C3CCCC3)[C@H](C)OC2=O)c1OCOC(C)=O [compound 93] | 47 to 53 |  |  |  |  | > 70 | < 70 | > 70 | < 70 |
| COc1ccnc(C(=O)N[C@H]2COC[C@H](Cc3ccccc3)[C@@H](COc3ccccc3)[C@H](C)OC2=O)c1OC(C)=O [compound 95, 2-(((3S,7R,8S,9S)-7-benzyl-9-methyl-2-oxo-8-(phenoxymethyl)-1,5-dioxonan-3-yl)carbamoyl)-4-methoxypyridin-3-yl acetate] | 70 to 74 |  |  |  |  | > 70 | > 70 | > 70 | > 70 |
| COc1ccnc(C(=O)N[C@H]2COC[C@H](Cc3ccccc3)[C@@H](COc3ccccc3)[C@H](C)OC2=O)c1OCOC(C)=O [compound 96] | 56 to 61 |  |  |  |  | > 70 | > 70 | > 70 | < 70 |
| COCCC(=O)Oc1c(OC)ccnc1C(=O)N[C@H]1COC[C@H](Cc2ccc(Cl)cc2)[C@@H](C2CCCC2)[C@H](C)OC1=O [compound 106, 2-(((3S,7R,8R,9S)-7-(4-chlorobenzyl)-8-cyclopentyl-9-methyl-2-oxo-1,5-dioxonan-3-yl)carbamoyl)-4-methoxypyridin-3-yl 3-methoxypropanoate] | 55 to 60 |  |  |  |  | > 70 | > 70 | > 70 | > 70 |
